Experimental data from patent publication US12433293B2, “Herbicidal compositions” (BAYER AKTIENGESELLSCHAFT, priority 2019, dated 2025).

System: harmful plant species
Assay: Specific trial examples: synergistic effect (Δ) of herbicidal binary compositions applied by the post-emergence method, observed vs Colby expected value (Tables 3.1-3.4)
Format: in vivo
[1] = 1 g a.i./ha, post-emergence (Z25)
[2] = 1 g a.i./ha, post-emergence (Z26)
[3] = 4 g a.i./ha, post-emergence (Table 3.2, Z25)
[4] = 5 g a.i./ha, post-emergence (Table 3.2, Z25)
[5] = 16 g a.i./ha, post-emergence (Table 3.2, Z25)

CP(=O)(O)CCC(N)C(=O)O (stereo not drawn) [(B7.4) Glufosinate]
50%: Herbicidal action 21 DAT [%] against Abutilon theophrasti (50 g a.i./ha, post-emergence) | Herbicidal action 14 DAT [%] against Veronica hederifolia (60 g a.i./ha, post-emergence) | Herbicidal action 21 DAT [%] against Kochia Scoparia (150 g a.i./ha, post-emergence) | Herbicidal action 14 DAT [%] against Lolium rigidum (resistant biotype) (540 g a.i./ha, post-emergence)
60%: Herbicidal action 14 DAT [%] against Centaurea cyanus (180 g a.i./ha, post-emergence) | Herbicidal action 28 DAT [%] against Matricaria inodora (180 g a.i./ha, post-emergence) | Herbicidal action 14 DAT [%] against Phalaris minor (540 g a.i./ha, post-emergence)
35%: Herbicidal action 21 DAT [%] against Amaranthus palmeri (50 g a.i./ha, post-emergence (Z25))
10%: Herbicidal action 21 DAT [%] against Kochia Scoparia (50 g a.i./ha, post-emergence) | Herbicidal action 28 DAT [%] against Phalaris minor (60 g a.i./ha, post-emergence)
20%: Herbicidal action 14 DAT [%] against Phalaris minor (60 g a.i./ha, post-emergence) | Herbicidal action 28 DAT [%] against Poa annua L. (180 g a.i./ha, post-emergence)
30%: Herbicidal action 28 DAT [%] against Centaurea cyanus (180 g a.i./ha, post-emergence) | Herbicidal action 28 DAT [%] against Phalaris minor (180 g a.i./ha, post-emergence) | Herbicidal action 28 DAT [%] against Lolium rigidum (resistant biotype) (540 g a.i./ha, post-emergence)
90%: Herbicidal action 21 DAT [%] against Amaranthus palmeri (150 g a.i./ha, post-emergence)
40%: Herbicidal action 14 DAT [%] against Lolium rigidum (180 g a.i./ha, post-emergence) | Herbicidal action 28 DAT [%] against Lolium rigidum (540 g a.i./ha, post-emergence) | Herbicidal action 28 DAT [%] against Phalaris minor (540 g a.i./ha, post-emergence)
70%: Herbicidal action 28 DAT [%] against Centaurea cyanus (540 g a.i./ha, post-emergence)
85%: Herbicidal action 14 DAT [%] against Centaurea cyanus (540 g a.i./ha, post-emergence)

C=C[C@]1(C(=O)N[C@H]2C=C[C@@H](C(=O)OC)C2)CC(c2cc(F)cc(F)c2)=NO1 [Compound A1, methyl (1S,4R)-4-[[[(5S)-3-(3,5-difluorophenyl)-5-vinyl-4H-1,2-oxazol-5-yl]carbonyl]amino]cyclopent-2-ene-1-carboxylate]
20%: Herbicidal action 14 DAT [%] against Lolium rigidum (resistant biotype) (1 g a.i./ha, post-emergence) | Herbicidal action 28 DAT [%] against Lolium rigidum (resistant biotype) (1 g a.i./ha, post-emergence)
70%: Herbicidal action 14 DAT [%] against Lolium rigidum (4 g a.i./ha, post-emergence) | Herbicidal action 14 DAT [%] against Matricaria inodora (4 g a.i./ha, post-emergence) | Herbicidal action 28 DAT [%] against Phalaris minor (4 g a.i./ha, post-emergence) | Herbicidal action 28 DAT [%] against Phalaris minor [3] | Herbicidal action 14 DAT [%] against Veronica hederifolia (16 g a.i./ha, post-emergence)
85%: Herbicidal action 21 DAT [%] against Setaria viridis (1.7 g a.i./ha, post-emergence) | Herbicidal action 28 DAT [%] against Alopecurus myosuroides (4 g a.i./ha, post-emergence) | Herbicidal action 28 DAT [%] against Poa annua L. (4 g a.i./ha, post-emergence) | Herbicidal action 28 DAT [%] against Poa annua L. [3] | Herbicidal action 14 DAT [%] against Alopecurus myosuroides (16 g a.i./ha, post-emergence) | Herbicidal action 28 DAT [%] against Matricaria inodora (16 g a.i./ha, post-emergence) | Herbicidal action 28 DAT [%] against Phalaris minor (16 g a.i./ha, post-emergence) | Herbicidal action 28 DAT [%] against Matricaria inodora [5] | Herbicidal action 28 DAT [%] against Phalaris minor [5] | Herbicidal action 28 DAT [%] against Phalaris minor (16 g a.i./ha, post-emergence (Z26)) | Herbicidal action 21 DAT [%] against Kochia Scoparia (45 g a.i./ha, post-emergence)
50%: Herbicidal action 28 DAT [%] against Matricaria inodora [1] | Herbicidal action 28 DAT [%] against Matricaria inodora [2] | Herbicidal action 28 DAT [%] against Centaurea cyanus (16 g a.i./ha, post-emergence)
57%: Herbicidal action 45 DAT [%] against Amaranthus tuberculatus (100 g a.i./ha, post-emergence) | Herbicidal action 45 DAT [%] against Ipomoea ssp (100 g a.i./ha, post-emergence)
75%: Herbicidal action 14 DAT [%] against Phalaris minor (4 g a.i./ha, post-emergence) | Herbicidal action 28 DAT [%] against Lolium rigidum (4 g a.i./ha, post-emergence) | Herbicidal action 14 DAT [%] against Phalaris minor [3] | Herbicidal action 28 DAT [%] against Lolium rigidum [3] | Herbicidal action 21 DAT [%] against Kochia Scoparia (5 g a.i./ha, post-emergence) | Herbicidal action 21 DAT [%] against Kochia Scoparia [4]
17%: Herbicidal action 42 DAT [%] against Geranium dissectum (100 g a.i./ha, post-emergence)
48%: Herbicidal action 16 DAT [%] against Richardia scabra (100 g a.i./ha, post-emergence)
30%: Herbicidal action 14 DAT [%] against Phalaris minor (1 g a.i./ha, post-emergence) | Herbicidal action 14 DAT [%] against Veronica hederifolia (1 g a.i./ha, post-emergence) | Herbicidal action 28 DAT [%] against Bromus sterilis (1 g a.i./ha, post-emergence) | Herbicidal action 28 DAT [%] against Poa annua L. (1 g a.i./ha, post-emergence) | Herbicidal action 14 DAT [%] against Phalaris minor (1 g a.i./ha, post-emergence (Table 3.2, Z25)) | Herbicidal action 28 DAT [%] against Lolium rigidum [1] | Herbicidal action 28 DAT [%] against Lolium rigidum [2] | Herbicidal action 28 DAT [%] against Poa annua L. [2] | Herbicidal action 14 DAT [%] against Centaurea cyanus (4 g a.i./ha, post-emergence) | Herbicidal action 28 DAT [%] against Centaurea cyanus (4 g a.i./ha, post-emergence) | Herbicidal action 21 DAT [%] against Amaranthus palmeri (5 g a.i./ha, post-emergence (Z25)) | Herbicidal action 21 DAT [%] against Amaranthus palmeri (5 g a.i./ha, post-emergence (Z26))
25%: Herbicidal action 45 DAT [%] against Lysimachia nummularia (100 g a.i./ha, post-emergence)
80%: Herbicidal action 14 DAT [%] against Alopecurus myosuroides (4 g a.i./ha, post-emergence) | Herbicidal action 14 DAT [%] against Poa annua L. (4 g a.i./ha, post-emergence) | Herbicidal action 21 DAT [%] against Ipomoea purpurea (5 g a.i./ha, post-emergence) | Herbicidal action 21 DAT [%] against Ipomoea purpurea (15 g a.i./ha, post-emergence) | Herbicidal action 21 DAT [%] against Kochia Scoparia (15 g a.i./ha, post-emergence) | Herbicidal action 21 DAT [%] against Kochia Scoparia (15 g a.i./ha, post-emergence (Table 3.2, Z25)) | Herbicidal action 21 DAT [%] against Kochia Scoparia (15 g a.i./ha, post-emergence (Z26)) | Herbicidal action 14 DAT [%] against Lolium rigidum (16 g a.i./ha, post-emergence) | Herbicidal action 14 DAT [%] against Poa annua L. (16 g a.i./ha, post-emergence)
0%: Herbicidal action 42 DAT [%] against Malva pusilla (100 g a.i./ha, post-emergence)
90%: Herbicidal action 21 DAT [%] against Setaria viridis (5 g a.i./ha, post-emergence)
40%: Herbicidal action 28 DAT [%] against Veronica hederifolia (4 g a.i./ha, post-emergence) | Herbicidal action 28 DAT [%] against Lolium rigidum (resistant biotype) (4 g a.i./ha, post-emergence (Z25)) | Herbicidal action 28 DAT [%] against Lolium rigidum (resistant biotype) (4 g a.i./ha, post-emergence (Z26)) | Herbicidal action 21 DAT [%] against Amaranthus palmeri (15 g a.i./ha, post-emergence) | Herbicidal action 14 DAT [%] against Centaurea cyanus (16 g a.i./ha, post-emergence)
60%: Herbicidal action 21 DAT [%] against Abutilon theophrasti (5 g a.i./ha, post-emergence) | Herbicidal action 21 DAT [%] against Abutilon theophrasti [4]
10%: Herbicidal action 14 DAT [%] against Centaurea cyanus [1] | Herbicidal action 28 DAT [%] against Centaurea cyanus [1] | Herbicidal action 14 DAT [%] against Centaurea cyanus [2] | Herbicidal action 28 DAT [%] against Centaurea cyanus [2]
